Data published in patent publication US11040954B1, “CXCR3 receptor agonists” (RECEPTOS LLC, priority 2016, dated 2021).

Target: T1, CXCR3 (Homo sapiens, UniProt P49682)
T1 construct: host or cells: CHO-K1 (cAMP Hunter CHOK1 CXCR3 Gi cell line)
T1 sequence (P49682 1-368): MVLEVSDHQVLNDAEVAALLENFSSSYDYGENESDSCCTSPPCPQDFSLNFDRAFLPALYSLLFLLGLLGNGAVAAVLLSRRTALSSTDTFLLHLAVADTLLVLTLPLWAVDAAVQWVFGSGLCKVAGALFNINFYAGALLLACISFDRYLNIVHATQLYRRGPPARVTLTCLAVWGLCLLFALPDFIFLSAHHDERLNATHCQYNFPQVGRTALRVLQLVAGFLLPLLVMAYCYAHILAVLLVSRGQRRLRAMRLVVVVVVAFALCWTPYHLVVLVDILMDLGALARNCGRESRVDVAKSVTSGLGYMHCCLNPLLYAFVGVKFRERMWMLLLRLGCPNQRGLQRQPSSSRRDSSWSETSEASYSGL
Assay: CXCR3 cAMP agonist assay (cAMP Hunter CHOK1 CXCR3 Gi cell line, forskolin-stimulated, HitHunter cAMP detection)
Format: cell-based
Conditions: cAMP Hunter CHOK1 CXCR3 Gi cells, 20 μM forskolin, 30 minutes; read-out: Activity (CXCR3 cAMP agonist assay compound EC50)
Description: The cAMP Hunter™ CHOK1 CXCR3 Gi cell line was purchased from DiscoveRx. Cells were seeded into a 96-well white assay plate at 50,000 cells/well/94 μl assay buffer (Hank's Buffered Saline Solution, 10 mM HEPES, 0.1% fatty acid-free BSA, pH 7.4) and immediately assayed in suspension. Forskolin was added to 20 μM (5 μl of 400 μM stock) simultaneously with a 12-point dose response curve of compound at 0-10 μM (1 μl of 100× stock in 100% DMSO), and cells were incubated for 30 minutes. A cAMP standard curve is run as an assay control. A CXCL11 dose response was included to determine maximum efficacy. Direct detection of cAMP was carried out using the DiscoveRx HitHunter cAMP kit according to manufacturer's instructions, and luminescence was read using a SpectraMax M5 plate reader.

Compound | EC50 [nM]
NCCCC[C@H](NC(=O)[C@@H]1Cc2ccccc2CN1C(=O)CCC(=O)c1ccccc1)C(=O)Nc1ccc(Cl)c(Cl)c1 [Compound 1-1, (S)—N—((S)-6-amino-1-((3,4-dichlorophenyl)amino)-1-oxohexan-2-yl)-2-(4-oxo-4-phenylbutanoyl)-1,2,3,4-tetrahydroisoquinoline-3-carboxamide] | 50 to 250
NCCCC[C@H](NC(=O)[C@@H]1Cc2ccccc2CN1C(=O)CCC(=O)c1ccccc1)C(=O)Nc1ccc(Cl)cc1 [Compound 1-2] | 250 to 500
Cc1ccc(NC(=O)[C@H](CCCCN)NC(=O)[C@@H]2Cc3ccccc3CN2C(=O)CCC(=O)c2ccccc2)cc1 [Compound 1-3] | 50 to 250
NCCCC[C@H](NC(=O)[C@@H]1Cc2ccccc2CN1C(=O)CCC(=O)c1ccccc1)C(=O)Nc1ccc(-c2ccccc2)cc1 [Compound 1-5] | > 500
COc1ccccc1NC(=O)[C@H](CCCCN)NC(=O)[C@@H]1Cc2ccccc2CN1C(=O)CCC(=O)c1ccccc1 [Compound 1-6] | 250 to 500
CC(C)c1ccc(NC(=O)[C@H](CCCCN)NC(=O)[C@@H]2Cc3ccccc3CN2C(=O)CCC(=O)c2ccccc2)cc1 [Compound 1-7] | > 500
NCCCC[C@H](NC(=O)[C@@H]1Cc2ccccc2CN1C(=O)CCC(=O)c1ccccc1)C(=O)Nc1cccc(F)c1 [Compound 1-8] | > 500
NCCCC[C@H](NC(=O)[C@@H]1Cc2ccccc2CN1C(=O)CCC(=O)c1ccccc1)C(=O)Nc1cccc(Cl)c1 [Compound 1-9] | 50 to 250
Cc1cccc(NC(=O)[C@H](CCCCN)NC(=O)[C@@H]2Cc3ccccc3CN2C(=O)CCC(=O)c2ccccc2)c1 [Compound 1-10] | 50 to 250
COc1cccc(NC(=O)[C@H](CCCCN)NC(=O)[C@@H]2Cc3ccccc3CN2C(=O)CCC(=O)c2ccccc2)c1 [Compound 1-11] | 250 to 500
Cc1ccccc1NC(=O)[C@H](CCCCN)NC(=O)[C@@H]1Cc2ccccc2CN1C(=O)CCC(=O)c1ccccc1 [Compound 1-12] | 250 to 500
NCCCC[C@H](NC(=O)[C@@H]1Cc2ccccc2CN1C(=O)CCC(=O)c1ccccc1)C(=O)Nc1cccc(C(F)(F)F)c1 [Compound 1-13] | 50 to 250
NCCCC[C@H](NC(=O)[C@@H]1Cc2ccccc2CN1C(=O)CCC(=O)c1ccccc1)C(=O)Nc1ccccc1F [Compound 1-15] | 250 to 500
CCc1ccc(NC(=O)[C@H](CCCCN)NC(=O)[C@@H]2Cc3ccccc3CN2C(=O)CCC(=O)c2ccccc2)cc1CC [Compound 1-16] | 50 to 250
NCCCC[C@H](NC(=O)[C@@H]1Cc2ccccc2CN1C(=O)CCC(=O)c1ccccc1)C(=O)Nc1cc(Cl)cc(Cl)c1 [Compound 1-17] | 50 to 250
NCCCC[C@H](NC(=O)[C@@H]1Cc2ccccc2CN1C(=O)CCC(=O)c1ccccc1)C(=O)Nc1ccc(Cl)c(C(F)(F)F)c1 [Compound 1-18] | < 50
NCCCC[C@H](NC(=O)[C@@H]1Cc2ccccc2CN1C(=O)CCC(=O)c1ccccc1)C(=O)Nc1ccc(C(F)(F)F)c(F)c1 [Compound 1-19] | 250 to 500
NCCCC[C@H](NC(=O)[C@@H]1Cc2ccccc2CN1C(=O)CCC(=O)c1ccccc1)C(=O)Nc1ccc(F)c(F)c1 [Compound 1-21] | > 500
NCCCC[C@H](NC(=O)[C@@H]1Cc2ccccc2CN1C(=O)CCC(=O)c1ccccc1)C(=O)Nc1ccc(C(F)(F)F)c(Cl)c1 [Compound 1-22] | 250 to 500
NCCCC[C@H](NC(=O)[C@@H]1Cc2ccccc2CN1C(=O)CCC(=O)c1ccccc1)C(=O)Nc1ccc(Cl)cc1F [Compound 1-23] | 50 to 250

Second part, the compound after the results:

EC50 [nM] | Compound
250 to 500 | Cc1cc(NC(=O)C(Cc2cccnc2)NC(=O)[C@@H]2Cc3ccccc3CN2C(=O)CCC(=O)c2ccccc2)ccc1Cl (mixture of isomers) [Compound 3-3]
> 500 | Cc1cc(NC(=O)C(NC(=O)[C@@H]2Cc3ccccc3CN2C(=O)CCC(=O)c2ccccc2)C2CCNCC2)ccc1Cl (mixture of isomers) [Compound 4-7]
50 to 250 | Cc1cc(NC(=O)C(CC2CCNCC2)NC(=O)[C@@H]2Cc3ccccc3CN2C(=O)CCC(=O)c2ccccc2)ccc1Cl (mixture of isomers) [Compound 4-11]
50 to 250 | NCC[C@H](NC(=O)[C@@H]1Cc2ccccc2CN1C(=O)CCC(=O)c1ccccc1)C(=O)Nc1cc(Cl)c(Cl)cc1O (racemic) [Compound 4-13]
50 to 250 | Cc1cc(NC(=O)C(CC2CCN(C)CC2)NC(=O)[C@@H]2Cc3ccccc3CN2C(=O)CCC(=O)c2ccccc2)ccc1Cl (mixture of isomers) [Compound 6-1, (S)—N—((S)-1-((4-chloro-3-methylphenyl)amino)-3-(1-methylpiperidin-4-yl)-1-oxopropan-2-yl)-2-(4-oxo-4-phenylbutanoyl)-1,2,3,4-tetrahydroisoquinoline-3-carboxamide]
50 to 250 | Cc1cc(NC(=O)C(CC2CC[N+](C)(C)CC2)NC(=O)[C@@H]2Cc3ccccc3CN2C(=O)CCC(=O)c2ccccc2)ccc1Cl (mixture of isomers) [Compound 6-2, 4-((S)-3-((4-chloro-3-methylphenyl)amino)-3-oxo-2-((S)-2-(4-oxo-4-phenylbutanoyl)-1,2,3,4-tetrahydroisoquinoline-3-carboxamido)propyl)-1,1-dimethylpiperidin-1-ium iodide]
50 to 250 | Cc1cc(NC(=O)C(NC(=O)[C@@H]2Cc3ccccc3CN2C(=O)CCC(=O)c2ccccc2)C2CCN(C)CC2)ccc1Cl (mixture of isomers) [Compound 6-5]
< 50 | Cc1cc(NC(=O)C(NC(=O)[C@@H]2Cc3ccccc3CN2C(=O)CCC(=O)c2ccccc2)C2CC[N+](C)(C)CC2)ccc1Cl (mixture of isomers) [Compound 6-6]
< 50 | NC12CC(CC(NC(=O)[C@@H]3Cc4ccccc4CN3C(=O)CCC(=O)c3ccccc3)C(=O)Nc3ccc(Cl)c(Cl)c3F)(C1)C2 (mixture of isomers) [Compound 22-3]
> 500 | O=C(CCC(=O)N1Cc2ccccc2CC1C(=O)NC(CCN1CCC(F)CC1)C(=O)Nc1ccc2c(c1)CCC2)c1ccccc1 (racemic) [Compound 23-1, N-(1-((2,3-dihydro-1H-inden-5-yl)amino)-4-(4-fluoropiperidin-1-yl)-1-oxobutan-2-yl)-2-(4-oxo-4-phenylbutanoyl)-1,2,3,4-tetrahydroisoquinoline-3-carboxamide]
< 50 | O=C(CCC(=O)N1Cc2ccccc2CC1C(=O)NC(CCN1CCC(F)CC1)C(=O)Nc1ccc(Cl)c(Cl)c1F)c1ccccc1 (racemic) [Compound 23-3]
50 to 250 | Cc1c(Cl)ccc(NC(=O)C(CCN2CCC(O)CC2)NC(=O)[C@@H]2Cc3ccccc3CN2C(=O)CCC(=O)c2ccccc2)c1Cl (mixture of isomers) [Compound 25-1, (3S)—N-(1-((2,4-dichloro-3-methylphenyl)amino)-4-(4-hydroxypiperidin-1-yl)-1-oxobutan-2-yl)-2-(4-oxo-4-phenylbutanoyl)-1,2,3,4-tetrahydroisoquinoline-3-carboxamide]
50 to 250 | Cc1cc(NC(=O)[C@H](CCN2CCC(O)CC2)NC(=O)[C@@H]2Cc3ccccc3CN2C(=O)CCC(=O)c2ccccc2)c(F)cc1Cl (racemic) [Compound 25-2]
250 to 500 | Cc1cccc(NC(=O)[C@H](CCN2CCC(O)CC2)NC(=O)[C@@H]2Cc3ccccc3CN2C(=O)CCC(=O)c2ccccc2)c1Cl (racemic) [Compound 25-3]
250 to 500 | Cc1cc(NC(=O)[C@H](CCCCN)NC(=O)[C@@H]2Cc3ccccc3CN2C(=O)CCC(=O)c2ccccc2)ccc1Cl (stereo in doubt) [Compound 4-2, (S)—N—((S)-6-amino-1-((4-chloro-3-methylphenyl)amino)-1-oxohexan-2-yl)-2-(4-oxo-4-phenylbutanoyl)-1,2,3,4-tetrahydroisoquinoline-3-carboxamide]
50 to 250 | Cc1cc(Cl)ccc1NC(=O)[C@H](CCCCN)NC(=O)[C@@H]1Cc2ccccc2CN1C(=O)CCC(=O)c1ccccc1 [Compound 1-24]
< 50 | Cc1ccc(NC(=O)[C@H](CCCCN)NC(=O)[C@@H]2Cc3ccccc3CN2C(=O)CCC(=O)c2ccccc2)cc1Cl [Compound 1-27]
50 to 250 | Cc1cc(NC(=O)[C@H](CCCCN)NC(=O)[C@@H]2Cc3ccccc3CN2C(=O)CCC(=O)c2ccccc2)ccc1C(F)(F)F [Compound 1-28]
< 50 | Cc1ccc(NC(=O)[C@H](CCCCN)NC(=O)[C@@H]2Cc3ccccc3CN2C(=O)CCC(=O)c2ccccc2)cc1C [Compound 1-29]
< 50 | Cc1ccc(NC(=O)[C@H](CCCCN)NC(=O)[C@@H]2Cc3ccccc3CN2C(=O)CCC(=O)c2ccccc2)cc1C(F)(F)F [Compound 1-30]
250 to 500 | CN(C)CCCC[C@H](NC(=O)[C@@H]1Cc2ccccc2CN1C(=O)CCC(=O)c1ccccc1)C(=O)Nc1ccc(Cl)c(Cl)c1 [Compound 1-31]
< 50 | Cc1cc(NC(=O)[C@H](CCCNC(=N)N)NC(=O)[C@@H]2Cc3ccccc3CN2C(=O)CCC(=O)c2ccccc2)ccc1Cl [Compound 1-32]
< 50 | Cc1ccc(NC(=O)[C@H](CCCNC(=N)N)NC(=O)[C@@H]2Cc3ccccc3CN2C(=O)CCC(=O)c2ccccc2)cc1C [Compound 1-33]
< 50 | Cc1cc(NC(=O)[C@H](CCCCN)NC(=O)[C@@H]2Cc3ccccc3CN2C(=O)CCC(=O)c2ccccc2)cnc1C [Compound 1-34]
